{"source": "patent US20220096452A1", "about": "“LOCAL ANESTHETIC FOR THE TREATMENT OF NEUROLOGICAL SYMPTOMS RESULTING FROM BRAIN DYSFUNCTIONS” (ICM (INSTITUT DU CERVEAU ET DE LA MOELLE ÉPINIÈRE), priority 2019, published 2022)", "format_in_all_cases": "in vivo, human", "key": {"[1]": {"test_system": "patient who suffered from almost complete cortical blindness following a bilateral occipital stroke", "experiment": "Neurovisual evaluation (BORB and other tests) during on periods", "excerpt": "As shown in the table below, during on periods, all tests involving visual perception were normal, except for a mild deficit in the Facial recognition test, with no discernible impairment of face perception in everyday life."}, "[2]": {"test_system": "patient who suffered from almost complete cortical blindness following a bilateral occipital stroke", "experiment": "Visual field assessment, full-threshold Humphrey visual field (HVF), 24-2 SITA", "excerpt": "Those clinical observations were supported and refined by assessment of the visual field with the full-threshold Humphrey visual field (HVF), 24-2 Swedish Interactive Thresholding Algorithm (SITA) (Carl Zeiss Meditec Inc., Dublin, Calif.).\nThe same pattern prevailed using Goldmann perimetry."}, "[3]": {"test_system": "patient who suffered from almost complete cortical blindness following a bilateral occipital stroke", "experiment": "Clinical assessment of vision (visual field by confrontation), on vs off periods", "excerpt": "In 2010, a patient underwent surgery for the removal of a cervical herniated intervertebral disc (C6-C7). Immediately following surgery, they suffered from a dissection of their right vertebral artery, resulting in bilateral occipital and right cerebellar infarcts. They presented initially with almost complete cortical blindness, left hemiparesis, gait instability, mild swallowing difficulties. Visual perception improved in a small peripheral part of their right visual hemifield, while all other symptoms recovered fully.\nThe inverse phenomenon took place, over about 1 minute, during the transition from on to off periods."}, "[4]": {"test_system": "patient who suffered from almost complete cortical blindness following a bilateral occipital stroke", "experiment": "Resting state functional MRI connectivity, on vs off periods", "experimental": "Resting state fMRI is a method of functional magnetic resonance imaging (fMRI) that is used in brain mapping to evaluate regional interactions that occur in a resting or task-negative state, when an explicit task is not being performed. We gathered MRI images while the patient was at rest with their eyes closed, during off and on periods. Those data were analyzed using the CONN toolbox (https://web.conn-toolbox.org/home). We report here two results providing pathophysiological correlates of vision recovery in the patient's right visual hemifield under Mepivacaine.\nThe left early visual cortex (or calcarine cortex) is the entry gate into the brain of visual information from the right hemifield. […] We predicted that whatever its underlying mechanism, functional recovery implies a restoration of functional communication between the left calcarine cortex and distant cortical areas.\nWe predicted that the restoration of vision should be accompanied with an overall increase of connectivity between the visual system and the rest of the brain. We computed for each voxel of the brain the average connectivity with the rest of the brain (or “intrinsic connectivity”), and studied the changes of this value between off and on periods."}, "[5]": {"test_system": "patient who suffered from almost complete cortical blindness following a bilateral occipital stroke", "experiment": "General neurological examination", "conditions": "either off or on Mepivacaine", "excerpt": "Apart from the patient's visual status, […] general neurological examination was normal, either off or on Mepivacaine. They had no sensory or motor impairment, no abnormalities of the cranial nerves, no cognitive deficit (MMSE=29/30, FAB 16/18, Five Words Test 10/10). There was no psychiatric symptoms, except for a depressive mood whenever the patient was off medication and virtually blind."}, "[6]": {"test_system": "patient who suffered from almost complete cortical blindness following a bilateral occipital stroke", "experiment": "18F-FDG PET-scan brain metabolism, on vs off periods"}}, "note": "Entries after “also recorded” stand apart in the source; their conditions may differ."}
{"molecule": "Cc1cccc(C)c1NC(=O)C1CCCCN1C", "note": "(stereo not shown) [Mepivacaine, I-methyl-2′,6′-pipecoloxylidide]", "values": [{"measurement": "BORB TEST 1: Copying, score", "setting": "[1]", "result": "9/9"}, {"measurement": "BORB TEST 2: Length Match Task, score", "setting": "[1]", "result": "26/30"}, {"measurement": "BORB TEST 3: Size Match Task, score", "setting": "[1]", "result": "28/30"}, {"measurement": "BORB TEST 4: Orientation Match Task, score", "setting": "[1]", "result": "25/30"}, {"measurement": "BORB TEST 5: Position of Gap Match Task, score", "setting": "[1]", "result": "37/40"}, {"measurement": "BORB TEST 7: Minimal Feature View Test, score", "setting": "[1]", "result": "25/25"}, {"measurement": "BORB TEST 8: Foreshortened View Task, score", "setting": "[1]", "result": "25/25"}, {"measurement": "BORB TEST 9: Drawing from Memory, score", "setting": "[1]", "result": "6/6"}, {"measurement": "BORB TEST 10: Object Decision Task, score", "setting": "[1]", "result": "26/32"}, {"measurement": "BORB TEST 11: Function Match Task, score", "setting": "[1]", "result": "31/32"}, {"measurement": "BORB TEST 12: Associative Match Task, score", "setting": "[1]", "result": "29/30"}, {"measurement": "Benton's Judgment of Line Orientation, score", "setting": "[1]", "result": "14/15"}, {"measurement": "Block design test (WAIS-IV), score", "setting": "[1]", "result": "53/66"}, {"measurement": "Facial recognition test (Benton, 1963), score", "setting": "[1]", "result": "38/54"}, {"measurement": "Facial recognition test, in words", "setting": "[1]", "result": "mild deficit"}, {"measurement": "Hooper Test (Richardson and Marattoli, 1996), score", "setting": "[1]", "result": "27/30"}, {"measurement": "Matrix reasoning test (WAIS-IV), score", "setting": "[1]", "result": "22/26"}, {"measurement": "OD 80 picture naming test (Deloche and Hannequin, 1996), score", "setting": "[1]", "result": "80/80"}, {"measurement": "all tests involving visual perception", "setting": "[1]", "result": "normal"}, {"measurement": "Block design test (WAIS-IV), NS", "setting": "[1]; NS", "result": 13}, {"measurement": "Matrix reasoning test (WAIS-IV), NS", "setting": "[1]; NS", "result": 14}, {"measurement": "BORB TEST 2: Length Match Task, z", "setting": "[1]; z score", "result": 0.56}, {"measurement": "BORB TEST 3: Size Match Task, z", "setting": "[1]; z score", "result": 0.29}, {"measurement": "BORB TEST 4: Orientation Match Task, z", "setting": "[1]; z score", "result": 0.08}, {"measurement": "BORB TEST 5: Position of Gap Match Task, z", "setting": "[1]; z score", "result": 0.48}, {"measurement": "BORB TEST 7: Minimal Feature View Test, z", "setting": "[1]; z score", "result": 0.85}, {"measurement": "BORB TEST 8: Foreshortened View Task, z", "setting": "[1]; z score", "result": 1.31}, {"measurement": "BORB TEST 10: Object Decision Task, z", "setting": "[1]; z score", "result": 0.45}, {"measurement": "BORB TEST 11: Function Match Task, z", "setting": "[1]; z score", "result": 0.45}, {"measurement": "BORB TEST 12: Associative Match Task, z", "setting": "[1]; z score", "result": 0.63}, {"measurement": "Hooper Test (Richardson and Marattoli, 1996), z", "setting": "[1]; z score", "result": 1.30}, {"measurement": "vision in the left superior quadrant", "setting": "[2]; on period / under Mepivacaine", "result": "recovered in a small paramedial island in the left superior quadrant; also recorded: extends to part of the left superior quadrant"}, {"measurement": "vision in the right hemifield (HVF)", "setting": "[2]; on period, FIG. 2", "result": "vision returned to normal in the whole right hemifield, except for a small superior paracentral island"}, {"measurement": "island of right visual field corresponding to right occipital infarct", "setting": "[2]; under Mepivacaine", "result": "not improved"}, {"measurement": "vision in the left hemifield (confrontation)", "setting": "[3]; during on periods", "result": "dense hemianopia persisted"}, {"measurement": "vision in the right hemifield (confrontation)", "setting": "[3]; during on periods", "result": "vision returned to normal in the right hemifield"}, {"measurement": "duration of transition from off to on periods (widening of spared vision to whole right hemifield)", "setting": "[3]; patient description", "result": "over a matter of seconds"}, {"measurement": "duration of transition from on to off periods", "setting": "[3]; patient description", "result": "about 1 minute"}, {"measurement": "visual ability of the patient", "setting": "[3]; pursuant administration, single patient", "result": "improvement of visual ability"}, {"measurement": "functional connectivity of right-hemispheric calcarine region (control analysis)", "setting": "[4]", "result": "no significant differences between on and off periods"}, {"measurement": "functional connectivity of left calcarine cortex with bilateral frontoparietal regions", "setting": "[4]; FIG. 4", "result": "increase in connectivity"}, {"measurement": "functional connectivity of left calcarine cortex with mesial and lateral regions (default-mode network)", "setting": "[4]; FIG. 4", "result": "decrease in correlation"}, {"measurement": "intrinsic connectivity of bilateral lateral occipital cortex with the rest of the brain", "setting": "[4]; FIG. 5", "result": "increased its average functional connectivity with the rest of the brain"}, {"measurement": "general neurological examination (apart from visual status)", "setting": "[5]", "result": "normal"}, {"measurement": "metabolism in the severely lesioned right mesial occipital cortex", "setting": "[6]; on and off periods", "result": "severe and constant hypometabolism"}, {"measurement": "metabolism in the intact left occipital and temporal cortex", "setting": "[6]; on vs off periods, FIG. 6", "result": "significant increase in metabolism"}]}
